Molecules are shown by their SMILES.

For this assay, the target named is T1, HCV NS3-4A serine protease (full-length NS3-4A protein, genotype 1a, strain HCV-1) (Hepatitis C virus genotype 1a, UniProt P26664).
T1 construct: using the full-length NS3-4A protein (genotype 1a, strain HCV-1)
T1 sequence (P26664 1658-1711): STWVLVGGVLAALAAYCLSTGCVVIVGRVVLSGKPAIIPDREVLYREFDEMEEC
T1 sequence (P26664 1027-1657): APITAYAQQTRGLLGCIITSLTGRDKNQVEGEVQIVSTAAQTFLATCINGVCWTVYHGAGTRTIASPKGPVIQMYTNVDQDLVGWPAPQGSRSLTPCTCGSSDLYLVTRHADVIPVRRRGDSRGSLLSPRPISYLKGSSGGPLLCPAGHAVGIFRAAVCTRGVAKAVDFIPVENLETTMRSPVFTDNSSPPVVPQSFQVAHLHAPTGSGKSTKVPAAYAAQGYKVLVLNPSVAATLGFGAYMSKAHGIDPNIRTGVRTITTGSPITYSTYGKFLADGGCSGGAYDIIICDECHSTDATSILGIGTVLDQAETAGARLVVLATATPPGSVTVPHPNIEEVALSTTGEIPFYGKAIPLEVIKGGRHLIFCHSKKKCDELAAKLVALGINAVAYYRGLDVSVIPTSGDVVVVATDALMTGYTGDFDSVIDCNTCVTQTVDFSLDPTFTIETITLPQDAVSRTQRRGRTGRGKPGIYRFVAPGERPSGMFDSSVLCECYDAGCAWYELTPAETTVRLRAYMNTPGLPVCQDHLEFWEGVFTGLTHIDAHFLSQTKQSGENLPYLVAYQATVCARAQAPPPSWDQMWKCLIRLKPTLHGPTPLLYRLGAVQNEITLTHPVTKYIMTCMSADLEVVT
The assay is described as follows: HCV NS3-4A protease assay. Type of assay: biochemical. The conditions noted are these: Protease IC50. On the procedure: The inhibitory activity of certain compounds of Table A against HCV NS3-4A serine protease is determined in a homogenous assay using the full-length NS3-4A protein (genotype 1a, strain HCV-1) and a commercially available internally-quenched fluorogenic peptide substrate as described by Taliani, M., et al. 1996 Anal. Biochem. 240:60-67, which is incorporated by reference in its entirety.
One may read the IC50 as the concentration at which inhibition is half-maximal. The low end stands for higher potency, the high end for lower potency. `C=C[C@@H]1C[C@]1(NC(=O)[C@@H]1C[C@@]2(CN1C(=O)[C@@H](NC(=O)[C@@H](NC(=O)c1cnccn1)C(C)(C)C)C(C)(C)C)C(C)(C)C21CCC1)C(=O)NS(=O)(=O)C1CC1` [Compound 100, (5R,8S)-N-{(1R,2S)-1-[(cyclopropylsulfonyl)carba-moyl]-2-vinylcyclopropyl}-7-[(2S)-2-({(2S)-3,3-dimethyl-2-[(pyrazin-2-ylcarbonyl)amino]butanoyl}amino)-3,3-dimethylbutanoyl]-10,10-dimethyl-7-azadispiro[3.0.4.1]decane-8-carboxamide] yielded an IC50 of 4 nM.
The result for `C=C[C@H]1C[C@@]1(NC(=O)[C@@H]1C[C@@]2(CN1C(=O)[C@@H](NC(=O)[C@@H](NC(=O)C(C)(C)N1CCOCC1)C1CCCCC1)C(C)(C)C)C(C)(C)C21CCC1)C(=O)NS(=O)(=O)C1CC1` [Compound 101, (5R,8S)-7-[(2S)-2-({cyclohexyl[(2-methyl-2-morpholin-4-ylpropanoyl)amino]acetyl}amino)-3,3-dimethylbutanoyl]-N-{(1R,2S)-1-[(cyclopropylsulfonyl)carba-moyl]-2-vinylcyclopropyl}-10,10-dimethyl-7-azadispiro[3.0.4.1]decane-8-carboxamide] reads 1 nM.
To `C=C[C@H]1C[C@@]1(NC(=O)[C@@H]1C[C@@]2(CN1C(=O)[C@@H](NC(=O)[C@@H](NC(=O)C(C)(C)N1CCN(C(C)(C)C)CC1)C1CCCCC1)C(C)(C)C)C(C)(C)C21CCC1)C(=O)NS(=O)(=O)C1CC1` [Compound 102, (5R,8S)-7-[(2S)-2-{[{[2-(4-tert-butylpiperazin-1-yl)-2-methylpropanoyl]amino}(cyclo-hexyl)acetyl]amino}-3,3-dimethylbutanoyl]-N-{(1R,2S)-1-[(cyclopropylsulfonyl)carba-moyl]-2-vinylcyclopropyl}-10,10-dimethyl-7-azadispiro[3.0.4.1]decane-8-carboxamide] belongs 1 nM; to `C=C[C@H]1C[C@@]1(NC(=O)[C@@H]1C[C@@]2(CN1C(=O)[C@@H](NC(=O)[C@@H](NC(=O)c1nccn1C)C1CCCCC1)C(C)(C)C)C(C)(C)C21CCC1)C(=O)NS(=O)(=O)C1CC1` [Compound 103, (5R,8S)-7-{(2S)-2-[(cyclohexyl{[(1-methyl-1H-imidazol-2-yl)carbonyl]amino}acetyl)amino]-3,3-dimethylbutanoyl}-N-{(1R,2S)-1-[(cyclopropylsulfonyl)carba-moyl]-2-vinylcyclopropyl}-10,10-dimethyl-7-azadispiro[3.0.4.1]decane-8-carboxamide], 1.5 nM; to `C=C[C@H]1C[C@@]1(NC(=O)[C@@H]1C[C@@]2(CN1C(=O)[C@@H](NC(=O)[C@@H](NC(=O)C(C)(C)N1CCCCC1)C1CCCCC1)C(C)(C)C)C(C)(C)C21CCC1)C(=O)NS(=O)(=O)C1CC1` [Compound 104, (5R,8S)-7-[(2S)-2-({cyclohexyl[(2-methyl-2-piperidin-1-ylpropanoyl)amino]acetyl}amino)-3,3-dimethylbutanoyl]-N-{(1R,2S)-1-[(cyclopropylsulfonyl)carba-moyl]-2-vinylcyclopropyl}-10,10-dimethyl-7-azadispiro[3.0.4.1]decane-8-carboxamide], 0.7 nM.
`C=C[C@H]1C[C@@]1(NC(=O)[C@@H]1C[C@@]2(CN1C(=O)[C@@H](NC(=O)[C@@H](NC(=O)c1ncc[nH]1)C1CCCCC1)C(C)(C)C)C(C)(C)C21CCC1)C(=O)NS(=O)(=O)C1CC1` [Compound 105, (5R,8S)-7-[(2S)-2-({cyclohexyl[(1H-imidazol-2-ylcarbonyl)amino]acetyl}amino)-3,3-dimethylbutanoyl]-N-{(1R,2S)-1-[(cyclopropylsulfonyl)carba-moyl]-2-vinylcyclopropyl}-10,10-dimethyl-7-azadispiro[3.0.4.1]decane-8-carboxamide] displayed an IC50 of 0.9 nM.
The result for `C=C[C@H]1C[C@@]1(NC(=O)[C@@H]1C[C@@]2(CN1C(=O)[C@@H](NC(=O)[C@@H](NC(=O)c1ccno1)C1CCCCC1)C(C)(C)C)C(C)(C)C21CCC1)C(=O)NS(=O)(=O)C1CC1` [Compound 107, (5R,8S)-7-[(2S)-2-({cyclohexyl[(isoxazol-5-ylcarbonyl)amino]acetyl}amino)-3,3-dimethylbutanoyl]-N-{(1R,2S)-1-[(cyclopropylsulfonyl)carba-moyl]-2-vinylcyclopropyl}-10,10-dimethyl-7-azadispiro[3.0.4.1]decane-8-carboxamide] reads 0.6 nM.
The result for `C=C[C@H]1C[C@@]1(NC(=O)[C@@H]1C[C@@]2(CN1C(=O)[C@@H](NC(=O)[C@@H](NC(=O)[C@@H]1CCCO1)C1CCCCC1)C(C)(C)C)C(C)(C)C21CCC1)C(=O)NS(=O)(=O)C1CC1` [Compound 108, (5R,8S)-7-{(2S)-2-[(cyclohexyl{[(2S)-tetrahydrofuran-2-ylcarbonyl]amino}acetyl)amino]-3,3-dimethylbutanoyl}-N-{(1R,2S)-1-[(cyclopropylsulfonyl)carba-moyl]-2-vinylcyclopropyl}-10,10-dimethyl-7-azadispiro[3.0.4.1]decane-8-carboxamide] reads 2.5 nM; that for `C=C[C@H]1C[C@@]1(NC(=O)[C@@H]1C[C@@]2(CN1C(=O)[C@@H](NC(=O)[C@@H](NC(=O)C1CNC(=O)C1)C1CCCCC1)C(C)(C)C)C(C)(C)C21CCC1)C(=O)NS(=O)(=O)C1CC1` (stereo partly drawn) [Compound 109, (5R,8S)-7-{(2S)-2-[(cyclohexyl{[(5-oxopyrrolidin-3-yl)carbonyl]amino}acetyl)amino]-3,3-dimethylbutanoyl}-N-{(1R,2S)-1-[(cyclopropylsulfonyl)carba-moyl]-2-vinylcyclopropyl}-10,10-dimethyl-7-azadispiro[3.0.4.1]decane-8-carboxamide], 0.6 nM.
To `C=C[C@@H]1C[C@]1(NC(=O)[C@@H]1C[C@@]2(CN1C(=O)[C@@H](NC(=O)[C@@H](NC(=O)[C@@H]1CCC(=O)N1)C1CCCCC1)C(C)(C)C)C(C)(C)C21CCC1)C(=O)NS(=O)(=O)C1CC1` [Compound 110, (5R,8S)-7-[(2S)-2-{[(2S)-2-cyclohexyl-2-({[(2S)-5-oxopyrrolidin-2-yl]carbonyl}amino)acetyl]amino}-3,3-dimethylbutanoyl]-N-{(1R,2S)-1-[(cyclopropylsulfonyl)carba-moyl]-2-vinylcyclopropyl}-10,10-dimethyl-7-azadispiro[3.0.4.1]decane-8-carboxamide] belongs 1.5 nM.
Turning to `C=C[C@@H]1C[C@]1(NC(=O)[C@@H]1C[C@@]2(CN1C(=O)[C@@H](NC(=O)[C@@H](NC(=O)[C@H]1CCC(=O)N1)C1CCCCC1)C(C)(C)C)C(C)(C)C21CCC1)C(=O)NS(=O)(=O)C1CC1` [Compound 111, (5R,8S)-7-[(2S)-2-{[(2S)-2-cyclohexyl-2-({[(2R)-5-oxopyrrolidin-2-yl]carbonyl}amino)acetyl]amino}-3,3-dimethylbutanoyl]-N-{(1R,2S)-1-[(cyclopropylsulfonyl)carba-moyl]-2-vinylcyclopropyl}-10,10-dimethyl-7-azadispiro[3.0.4.1]decane-8-carboxamide], the half-inhibitory concentration (IC50) came out at 2 nM.
To `C=C[C@@H]1C[C@]1(NC(=O)[C@@H]1C[C@@]2(CN1C(=O)[C@@H](NC(=O)[C@@H](NC(=O)c1cocn1)C1CCCCC1)C(C)(C)C)C(C)(C)C21CCC1)C(=O)NS(=O)(=O)C1CC1` [Compound 112, (5R,8S)-7-[(2S)-2-({(2S)-2-cyclohexyl-2-[(1,3-oxazol-4-ylcarbonyl)amino]acetyl}amino)-3,3-dimethylbutanoyl]-N-{(1R,2S)-1-[(cyclopropylsulfonyl)carba-moyl]-2-vinylcyclopropyl}-10,10-dimethyl-7-azadispiro[3.0.4.1]decane-8-carboxamide] belongs 1.5 nM; to `C=C[C@@H]1C[C@]1(NC(=O)[C@@H]1C[C@@]2(CN1C(=O)[C@@H](NC(=O)[C@@H](NC(=O)c1cnco1)C1CCCCC1)C(C)(C)C)C(C)(C)C21CCC1)C(=O)NS(=O)(=O)C1CC1` [Compound 113, (5R,8S)-7-[(2S)-2-({(2S)-2-cyclohexyl-2-[(1,3-oxazol-5-ylcarbonyl)amino]acetyl}amino)-3,3-dimethylbutanoyl]-N-{(1R,2S)-1-[(cyclopropylsulfonyl)carba-moyl]-2-vinylcyclopropyl}-10,10-dimethyl-7-azadispiro[3.0.4.1]decane-8-carboxamide], 2.5 nM.
To `C=C[C@@H]1C[C@]1(NC(=O)[C@@H]1C[C@@]2(CN1C(=O)[C@@H](NC(=O)[C@@H](NC(=O)c1ccc[nH]1)C1CCCCC1)C(C)(C)C)C(C)(C)C21CCC1)C(=O)NS(=O)(=O)C1CC1` [Compound 114, (5R,8S)-7-[(2S)-2-({(2S)-2-cyclohexyl-2-[(1H-pyrrol-2-ylcarbonyl)amino]acetyl}amino)-3,3-dimethylbutanoyl]-N-{(1R,2S)-1-[(cyclopropylsulfonyl)carba-moyl]-2-vinylcyclopropyl}-10,10-dimethyl-7-azadispiro[3.0.4.1]decane-8-carboxamide] belongs 0.7 nM; to `C=C[C@@H]1C[C@]1(NC(=O)[C@@H]1C[C@@]2(CN1C(=O)[C@@H](NC(=O)[C@@H](NC(=O)c1ccncn1)C1CCCCC1)C(C)(C)C)C(C)(C)C21CCC1)C(=O)NS(=O)(=O)C1CC1` [Compound 115, (5R,8S)-7-[(2S)-2-({(2S)-2-cyclohexyl-2-[(pyrimidin-4-ylcarbonyl)amino]acetyl}amino)-3,3-dimethylbutanoyl]-N-{(1R,2S)-1-[(cyclopropylsulfonyl)carba-moyl]-2-vinylcyclopropyl}-10,10-dimethyl-7-azadispiro[3.0.4.1]decane-8-carboxamide], 0.6 nM.
